Test results: patent publication US20260123630A1, “COMPOSITIONS INCLUDING ENCAPSULATED BIXLOZONE AND NON ENCAPSULATED BIXLOZONE” (FMC CORPORATION, priority 2022, published 2026)

Tested on: corn
Assay: Crop injury studies in corn
Format: in vivo
Description: The maximum crop injury from encapsulated and non-encapsulated bixlozone compositions were assessed for corn. The compositions were applied at post-seeding pre-emergence and post-emergence.
The numbers in parentheses indicate the application rate of the applied compositions in g ai/ha.

## CCCCCC(C)OC(=O)COc1ccc(Cl)c2cccnc12 (centres unmarked) [cloquintocet-mexyl]
post-emergence BBCH 11-12, FIG. 5
  Effect of mixture partner on crop injury (in words): no observed effect
post-emergence BBCH 13-15, FIG. 6
  Effect of mixture partner on crop injury (in words): no observed effect
